Data as given in PubChem BioAssay AID330 (DTP/NCI, 2004).
“And” between values parts separate entries of the source, which are not always exact repeats. Equal entries are not always repeated. Inconclusive results and toxic doses are left out. How the source made its calls: active means survival T/C of 150% or more; inactive means T/C below 125% in these data.

Tested on: P388 leukemia ip, CD2F1 mice, survival T/C
Assay: NCI In Vivo Anticancer Drug Screen. Data for tumor model P388 Leukemia (intraperitoneal) in CD2F1 (CDF1) mice
Settings: endpoint: median survival time, higher = longer survival
How it was run: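 Mice carrying the transplanted tumor received test compound or vehicle. Survival was recorded in each group, and the value is the treated-group measurement divided by that of the vehicle-treated control group.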

[1] = dose: 25.0 mg/kg/injection, schedule: Q01DX009 (ip), vehicle: saline with Tween-80
[2] = dose: 50.0 mg/kg/injection, schedule: Q01DX009 (ip), vehicle: saline with Tween-80
[3] = dose: 100.0 mg/kg/injection, schedule: Q01DX009 (ip), vehicle: saline with Tween-80
[4] = dose: 200.0 mg/kg/injection, schedule: Q01DX009 (ip), vehicle: saline with Tween-80
[5] = dose: 50.0 mg/kg/injection, schedule: Q01DX005 (ip), vehicle: saline with Tween-80
[6] = dose: 100.0 mg/kg/injection, schedule: Q01DX005 (ip), vehicle: saline with Tween-80
[7] = dose: 50.0 mg/kg/injection, schedule: Q01DX005 (ip), vehicle: Klucel (hydroxypropylcellulose) (HPC)
[8] = dose: 100.0 mg/kg/injection, schedule: Q01DX005 (ip), vehicle: Klucel (hydroxypropylcellulose) (HPC)
[9] = dose: 60.0 mg/kg/injection, schedule: Q01DX005 (ip), vehicle: saline
[10] = dose: 120.0 mg/kg/injection, schedule: Q01DX005 (ip), vehicle: saline
[11] = dose: 240.0 mg/kg/injection, schedule: Q01DX005 (ip), vehicle: saline
[12] = dose: 50.0 mg/kg/injection, schedule: Q01DX009 (ip), vehicle: Klucel (hydroxypropylcellulose) (HPC)
[13] = dose: 200.0 mg/kg/injection, schedule: Q01DX009 (ip), vehicle: Klucel (hydroxypropylcellulose) (HPC)
[14] = dose: 12.5 mg/kg/injection, schedule: Q01DX009 (ip), vehicle: saline with Tween-80
[15] = dose: 60.0 mg/kg/injection, schedule: Q01DX005 (ip), vehicle: Klucel (hydroxypropylcellulose) (HPC)
[16] = dose: 120.0 mg/kg/injection, schedule: Q01DX005 (ip), vehicle: Klucel (hydroxypropylcellulose) (HPC)
[17] = dose: 240.0 mg/kg/injection, schedule: Q01DX005 (ip), vehicle: Klucel (hydroxypropylcellulose) (HPC)
[18] = dose: 200.0 mg/kg/injection, schedule: Q01DX005 (ip), vehicle: saline with Tween-80
[19] = dose: 200.0 mg/kg/injection, schedule: Q01DX005 (ip), vehicle: Klucel (hydroxypropylcellulose) (HPC)
[20] = dose: 60.0 mg/kg/injection, schedule: Q01DX005 (ip), vehicle: saline with Tween-80
[21] = dose: 120.0 mg/kg/injection, schedule: Q01DX005 (ip), vehicle: saline with Tween-80
[22] = dose: 240.0 mg/kg/injection, schedule: Q01DX005 (ip), vehicle: saline with Tween-80

Measured: T/C

CC1N/C(=C/c2ccccc2)C(=O)O1 (stereo not drawn)
inactive: [1] 106 % of control | [2] 110 % of control | [3] 105 % of control and 123 % of control | [4] 117 % of control and 96 % of control

COC(=O)Nc1ccc(C2OCCN2C(=O)Nc2ccc(Cl)cc2)cc1 (stereo not drawn)
inactive: [5] 87 % of control | [6] 88 % of control

CC12CCC3c4ccc(O)cc4CCC3C1CCC2(O)CN1CCCCC1 (stereo not drawn)
inactive: [7] 96 % of control | [8] 91 % of control

COC(=O)[C@H]1C[C@@H](N)[C@H](O)[C@@H]1O
inactive: [9] 102 % of control | [10] 101 % of control | [11] 100 % of control

COc1cccc(CCC(=O)O)c1OC
inactive: dose: 25.0 mg/kg/injection, schedule: Q01DX009 (ip), vehicle: water 103 % of control | dose: 50.0 mg/kg/injection, schedule: Q01DX009 (ip), vehicle: water 100 % of control | dose: 100.0 mg/kg/injection, schedule: Q01DX009 (ip), vehicle: water 108 % of control | dose: 200.0 mg/kg/injection, schedule: Q01DX009 (ip), vehicle: water 91 % of control | dose: 400.0 mg/kg/injection, schedule: Q01DX009 (ip), vehicle: water 92 % of control

Cc1ccc(S(=O)(=O)/C=C2\COc3ccccc3C2=O)cc1
inactive: dose: 100.0 mg/kg/injection, schedule: Q04DX002 (ip), vehicle: saline 100 % of control | dose: 200.0 mg/kg/injection, schedule: Q04DX002 (ip), vehicle: saline 100 % of control | dose: 400.0 mg/kg/injection, schedule: Q04DX002 (ip), vehicle: saline 97 % of control

CC(C)(C)C1CCC(P(C)(C)=S)CC1 (stereo not drawn)
inactive: dose: 12.5 mg/kg/injection, schedule: Q01DX009 (ip), vehicle: Klucel (hydroxypropylcellulose) (HPC) 99 % of control | dose: 25.0 mg/kg/injection, schedule: Q01DX009 (ip), vehicle: Klucel (hydroxypropylcellulose) (HPC) 114 % of control | [12] 94 % of control | [13] 97 % of control

C=CC(=NC(C)(C)C)Nc1ccccc1
inactive: dose: 6.25 mg/kg/injection, schedule: Q01DX009 (ip), vehicle: saline with Tween-80 101 % of control | [14] 105 % of control | [1] 108 % of control

CS(=O)(=O)c1cccc(C(=O)O)c1
inactive: [12] 108 % of control | dose: 100.0 mg/kg/injection, schedule: Q01DX009 (ip), vehicle: Klucel (hydroxypropylcellulose) (HPC) 108 % of control | [13] 99 % of control

CCCCCC/C=C\C(=O)O[C@H]1C(=O)O[C@@H]2C[C@H]3C(C)=C(O)C(=O)C[C@]3(C)[C@H]3[C@@H](O)[C@H](O)[C@@]4(C(=O)OC)OC[C@]32[C@@H]14
inactive: dose: 0.75 mg/kg/injection, schedule: Q01DX005 (ip), vehicle: Klucel (hydroxypropylcellulose) (HPC) 105 % of control | dose: 1.5 mg/kg/injection, schedule: Q01DX005 (ip), vehicle: Klucel (hydroxypropylcellulose) (HPC) 111 % of control | dose: 3.0 mg/kg/injection, schedule: Q01DX005 (ip), vehicle: Klucel (hydroxypropylcellulose) (HPC) 112 % of control | dose: 6.0 mg/kg/injection, schedule: Q01DX005 (ip), vehicle: Klucel (hydroxypropylcellulose) (HPC) 116 % of control

CC(CN(C)C)Nc1c2ccccc2nc2cccc([N+](=O)[O-])c12 (stereo not drawn)
inactive: dose: 0.04 mg/kg/injection, schedule: Q01DX009 (ip), vehicle: saline 87 % of control | dose: 0.09 mg/kg/injection, schedule: Q01DX009 (ip), vehicle: saline 101 % of control | dose: 0.19 mg/kg/injection, schedule: Q01DX009 (ip), vehicle: saline 102 % of control and 113 % of control | dose: 0.39 mg/kg/injection, schedule: Q01DX009 (ip), vehicle: saline 109 % of control

Brc1cnn(Cn2cc(Br)cn2)c1
inactive: [15] 102 % of control | [16] 102 % of control | [17] 99 % of control

O=C(OCc1ccccc1)C(Cc1ccccc1)NC(=O)C(Cc1ccc(O)cc1)N(C(=O)OCc1ccccc1)C(=O)OCc1ccccc1 (stereo not drawn)
inactive: [5] 103 % of control | [6] 100 % of control | [18] 91 % of control

CCOC(=O)C1C(c2ccc(OC)cc2)c2cc3c(cc2OC1(C)N1CCCC1)OCO3 (stereo not drawn)
inactive: [15] 98 % of control | [16] 96 % of control | [17] 93 % of control

O=C(Nc1ccc(-c2cn3ccccc3n2)cc1)c1ccccc1O
inactive: [2] 88 % of control | [3] 87 % of control | [4] 101 % of control

O=C(NN(c1ccccc1)c1ccccc1)c1ccccc1[N+](=O)[O-]
inactive: [2] 93 % of control | [3] 104 % of control | [4] 93 % of control

CCCCCCOC(=O)c1ccccc1NC(=O)NN1CCCCCC1
inactive: [7] 100 % of control | [8] 102 % of control | [19] 100 % of control

O=S(=O)(O)C(Nc1ccc(Cl)cc1)c1ccccc1 (stereo not drawn)
inactive: [2] 100 % of control | [3] 105 % of control | [4] 114 % of control

CC(=O)/C=C(\C)NCCN/C(C)=C/C(C)=O
inactive: [9] 101 % of control | [10] 98 % of control | [11] 98 % of control

CCOC(=O)C(CC)(COCc1ccccc1)C(=O)OCC
inactive: dose: 50.0 mg/kg/injection, schedule: Q01DX009 (ip), vehicle: other 100 % of control | dose: 100.0 mg/kg/injection, schedule: Q01DX009 (ip), vehicle: other 100 % of control | dose: 200.0 mg/kg/injection, schedule: Q01DX009 (ip), vehicle: other 100 % of control

Oc1ccccc1C1NCCc2[nH]cnc21 (stereo not drawn)
inactive: [7] 104 % of control | [8] 102 % of control | [19] 104 % of control

NC1C2CC3CC(C2)CC1(N)C3 (stereo not drawn)
inactive: [14] 104 % of control | [1] 102 % of control | [2] 101 % of control and 96 % of control | [3] 99 % of control | [4] 99 % of control

Cc1c(C)n2c(=O)n(-c3ccccc3)c(=O)n2c1=O
inactive: [15] 99 % of control | [16] 99 % of control | [17] 99 % of control

COc1ccc(C(c2cc3c(cc2O)OCO3)N2CCN(C(c3ccc(OC)c(O)c3)c3cc4c(cc3O)OCO4)CC2)cc1O (stereo not drawn)
inactive: [20] 96 % of control | [21] 101 % of control | [22] 112 % of control

COc1cc2c(OC)c(c1)CCCC1=CC(=O)C=C(CCC2)C1=O
inactive: [5] 94 % of control | dose: 100.0 mg/kg/injection, schedule: Q01DX001 (ip), vehicle: Klucel (hydroxypropylcellulose) (HPC) 92 % of control | [6] 103 % of control | dose: 200.0 mg/kg/injection, schedule: Q01DX001 (ip), vehicle: Klucel (hydroxypropylcellulose) (HPC) 100 % of control | [18] 100 % of control | dose: 400.0 mg/kg/injection, schedule: Q01DX001 (ip), vehicle: Klucel (hydroxypropylcellulose) (HPC) 90 % of control

CC1[N-]CCCN(CCN(C)C)CCC[N-]C(C)C2CCCC1[N-]2.[Ni+3].[O-][Cl+3]([O-])([O-])O (stereo not drawn)
inactive: dose: 100.0 mg/kg/injection, schedule: Q01DX001 (ip), vehicle: saline 106 % of control

NNC(=O)c1nnc(N)o1
inactive: [20] 106 % of control | [21] 106 % of control | [22] 95 % of control

CSC(=N\N=C\c1ccc2c(c1)OCO2)/N=C/N(C)C
inactive: [20] 98 % of control | [21] 97 % of control | [22] 94 % of control

C=C1C(=O)C23C(OC(=O)CCCCCCCCC)C1CCC2C12COC3(O)C(O)C1C(C)(C)CCC2O (stereo not drawn)
inactive: dose: 3.75 mg/kg/injection, schedule: Q01DX009 (ip), vehicle: saline with Tween-80 103 % of control | dose: 7.5 mg/kg/injection, schedule: Q01DX009 (ip), vehicle: saline with Tween-80 98 % of control | dose: 15.0 mg/kg/injection, schedule: Q01DX009 (ip), vehicle: saline with Tween-80 96 % of control | dose: 30.0 mg/kg/injection, schedule: Q01DX009 (ip), vehicle: saline with Tween-80 106 % of control

CC(=O)NC1=CC(=O)c2[nH]c(=O)[nH]c(=O)c2C1=O
inactive: dose: 3.0 mg/kg/injection, schedule: Q01DX005 (ip), vehicle: other 99 % of control | dose: 6.0 mg/kg/injection, schedule: Q01DX005 (ip), vehicle: other 98 % of control | dose: 12.0 mg/kg/injection, schedule: Q01DX005 (ip), vehicle: other 100 % of control
